Laboratory results as given in patent US20240276935A1, “METHODS FOR ENHANCING DISEASE RESISTANCE AND INCREASING BIOMASS YIELD AND SECONDARY METABOLITE QUANTITIES IN CANNABIS SATIVA UTILIZING PLANT DEFENSE-RESPONSE ELICITORS” (priority 2023, published 2024).

Key:
[1] = test system: C. sativa; design: species or system Cannabis sativa; conditions: in vivo
[2] = test system: medical cannabis variety; conditions: 0.1 mM, foliar application; cited from earlier work
[3] = test system: Fusarium sp.; assay: Protective effect on rooting clones of C. sativa against Fusarium sp. (Table 1); type: in vivo; conditions: for Total Alive: cultivar III clones alive; for Total Alive / Total Dead: total of 30 replicate clones per elicitor treatment; for Total Dead: cultivar III clones dead; for Mean Survival: rooting clones of cultivar III, sprayed daily ~2 ml solution/clone, inoculated with Fusarium culture (~10^3 Cfu/ml), survival one week later, three repeats of 10 clones
Description: Cultivar III was shown from the data in FIG. 1B to be most susceptible to mold pathogens. Thus, 10 clones of cultivar III were selected to be treated with formulations containing bacterial/fungal PAMP elicitor compounds (as listed in Table 1) formulated in water. Treatments were performed by spraying the clones daily with ˜2 ml solution/clone, starting one week after cutting. Plants were inoculated two weeks after cutting (one week after treatment application) by applying 10 ml Fusarium culture (˜10^3 Cfu/ml) to the water tray. After one hour, clones were removed and placed in clean water trays. Survival was assessed one week later upon reaching the vegetative growth phase. The experiment was repeated three times for a total of 30 replicate clones per elicitor treatment.

[4] = test system: cannabis sativa; conditions: cited from earlier work

| SMILES | Yield (g/plant), Cultivar I [1] [g/plant] | Yield (g/plant), Cultivar II [1] | Yield (g/plant), Cultivar III [1] [g/plant] | increase of CBDA content in inflorescences [2] [%] | Total Alive [3] | Total Dead [3] | Mean Survival [3] [%] | A9-THC in extract ([4]; 1 M of SA (highest)) [%] | CBD in extract ([4]; 1 M of SA (highest)) [%] | TPC, TFC, TCC, Chl a, Chl b, and antioxidant capacity ([4]; 1 M treatment, lowest in control plants) |
| --- | --- | --- | --- | --- | --- | --- | --- | --- | --- | --- |
| COc1cc(/C=C/CO)ccc1O [Coniferyl Alcohol] | 13.6 ± 2.9 | 12.8 ± 1.3 g/plant | 12.4 ± 1.8 | – | – | – | – | – | – | – |
| O=C(O)[C@H]1OC(O)[C@H](O)[C@@H](O)[C@H]1O (stereo partly shown) [D Galactoronic Acid] | 13.5 ± 1.8 | 11.5 ± 2.1 g/plant | 10.2 ± 1.8 | – | – | – | – | – | – | – |
| CC/C=C\CC1C(=O)CCC1CC(=O)OC (stereo not shown) [MeJA, methyl jasmonate] | – | – | – | 15.6 | – | – | – | – | – | – |
| CC(=O)N[C@H]1C(O)O[C@H](CO)[C@@H](O)[C@@H]1O (stereo partly drawn) [N-Acetyl-D-Glucosamine (4), N-Acetyl-D-Glucosamine] | 11.6 ± 1.7 | 10.7 ± 1.9 g/plant | 9.2 ± 0.7 | – | 21 | 9 | 70.0 | – | – | – |
| CC(=O)N[C@H]1C(O)O[C@H](CO)[C@@H](O)[C@@H]1O[C@H](C)C(=O)O (stereo partly shown) [N-Acetylmuramic Acid] | 13.4 ± 2.1 | 11.5 ± 2^ g/plant | 11.5 ± 1.6 | – | 21 | 9 | 70.0 | – | – | – |
| OC/C=C/c1ccc(O)cc1 [Paracoumaryl Alcohol] | 14.7 ± 2.5 | 9.2 ± 1 g/plant | 11.9 ± 2.9 | – | – | – | – | – | – | – |
| O=C(O)c1ccccc1O [SA, salicylic acid] | – | – | – | – | – | – | – | 22.84 | 37.81 | highest |
| COc1cc(/C=C/CO)cc(OC)c1O [Sinapyl Alcohol (Syringil monomer), Sinapyl Alcohol] | 16.4 ± 1.2 | 12.9 ± 2.1 g/plant | 13.5 ± 2.6 | – | – | – | – | – | – | – |
